Experiments:
[1] = biological target: T1, Full-length human MNK1 (Homo sapiens, UniProt Q9BUB5, T385D); test: MNK1 biochemical IC50 assay (Caliper Mobility Shift Assay); conditions: read-out: P(IC50) MNK1 (converted)
T1 construct: GST (N); purchased Carna Biosciences 02-145; host or cells: baculovirus expression system

[2] = biological target: T2, Full-length human MNK2 (Homo sapiens, UniProt Q9HBH9, T379D); test: MNK2 biochemical IC50 assay (Caliper Mobility Shift Assay); conditions: read-out: P(IC50) MNK2 (converted)
T2 construct: GST (N); purchased Carna Biosciences 02-146; host or cells: baculovirus expression system

[3] = test system: phosphorylation of eIF4E at ser209 in MV4.11 cell line; test: MNK cellular activity phospho-eIF4E detection assay (Alphascreen Surefire); type: cell-based; conditions: Homo sapiens; MV4.11 cell line, phospho-eIF4E (ser209) Alphascreen Surefire; read-out: P(IC50) elF4E (converted)
Summary of the method: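 AlphaScreen SureFire sandwich-immunoassay readout of phospho-eIF4E Ser209 in lysed MV4.11 cells; acceptor then donor beads, each 1.5 hr at room temperature. Signal normalised to untreated DMSO-only controls; duplicate curves, values averaged over at least 2 independent experiments.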

T2 sequence (Q9HBH9 whole entry T379D): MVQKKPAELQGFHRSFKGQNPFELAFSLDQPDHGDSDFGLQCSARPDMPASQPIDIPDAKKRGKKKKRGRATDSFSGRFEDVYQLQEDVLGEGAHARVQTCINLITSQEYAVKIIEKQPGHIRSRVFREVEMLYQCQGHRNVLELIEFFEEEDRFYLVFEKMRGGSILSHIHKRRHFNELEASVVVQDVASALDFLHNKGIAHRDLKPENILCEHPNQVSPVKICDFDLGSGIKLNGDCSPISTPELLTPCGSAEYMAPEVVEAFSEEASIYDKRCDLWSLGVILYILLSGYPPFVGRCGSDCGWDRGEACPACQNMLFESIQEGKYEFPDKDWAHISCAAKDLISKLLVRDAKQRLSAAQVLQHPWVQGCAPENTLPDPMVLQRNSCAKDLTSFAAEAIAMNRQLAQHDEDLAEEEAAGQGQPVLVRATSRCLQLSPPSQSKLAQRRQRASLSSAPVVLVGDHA
T1 sequence (Q9BUB5 1-424 isoform Q9BUB5-2 T344D): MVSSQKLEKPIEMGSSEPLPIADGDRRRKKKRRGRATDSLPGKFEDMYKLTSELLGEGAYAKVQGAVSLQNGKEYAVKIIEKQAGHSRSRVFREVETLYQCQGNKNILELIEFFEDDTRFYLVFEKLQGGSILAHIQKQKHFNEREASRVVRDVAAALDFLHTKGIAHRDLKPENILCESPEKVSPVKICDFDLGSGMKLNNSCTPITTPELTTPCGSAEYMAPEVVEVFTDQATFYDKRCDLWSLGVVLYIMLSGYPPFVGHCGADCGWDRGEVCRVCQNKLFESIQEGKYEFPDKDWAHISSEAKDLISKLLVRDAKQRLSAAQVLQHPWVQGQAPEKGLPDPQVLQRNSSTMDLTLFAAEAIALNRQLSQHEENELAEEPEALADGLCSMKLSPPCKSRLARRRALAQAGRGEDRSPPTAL

Row | SMILES | IC50 [1] [µM] | IC50 [2] [µM] | IC50 [3] [µM]
1 | CC(C)Oc1cc(F)ccc1Nc1ncnc2sc(C(=O)NCCCN3CCCC3)nc12 [Example 13, 7-(4-fluoro-2-isopropoxy-anilino)-N-(3-pyrrolidin-1-ylpropyl)thiazolo[5,4-d]pyrimidine-2-carboxamide] | 0.0501 | 0.0398 | 0.0398
2 | CC(C)Oc1cc(F)ccc1Nc1ncnc2sc(C(=O)NC3CC4CCC(C3)N4)nc12 (stereo not drawn) [Example 5, N-(8-azabicyclo[3.2.1]octan-3-yl)-7-(4-fluoro-2-isopropoxy-anilino)thiazolo[5,4-d]pyrimidine-2-carboxamide] | 0.158 | 0.0794 | 0.1
3 | O=C(NCC(O)CO)c1nc2c(N3CCc4ccccc43)ncnc2s1 (stereo not drawn) [Example 104] | 0.02 | 0.0126 | 0.01
4 | O=C(NC1CCOCC1)c1nc2c(N3CCc4cc(O)ccc43)ncnc2s1 [Example 114, 7-(5-hydroxyindolin-1-yl)-N-tetrahydropyran-4-yl-thiazolo[5,4-d]pyrimidine-2-carboxamide] | 0.00251 | 0.00251 | 0.00158
5 | CC(C)Oc1cc(F)ccc1Nc1ncnc2sc(C(=O)NC3CCNCC3)nc12 [Example 31, 7-{[4-Fluoro-2-(propan-2-yloxy)phenyl]amino}-N-(piperidin-4-yl)[1,3]thiazolo[5,4-d]pyrimidine-2-carboxamide] | 0.0631 | 0.0501 | 0.0501
6 | CN(C)CCC1CN(c2ncnc3sc(C(=O)NC4CCOCC4)nc23)c2ccc(F)cc21 (stereo not drawn) [Example 148, 7-[3-[2-(dimethyl-amino)ethyl]-5-fluoro-indolin-1-yl]-N-tetrahydro-pyran-4-yl-thiazolo[5,4-d]pyrimidine-2-carboxamide] | 0.0501 | 0.0631 | 0.0631
7 | CC1(C)CN(c2ncnc3sc(C(=O)NC4CCOCC4)nc23)c2ccc(F)cc21 [Example 105, 7-(5-Fluoro-3,3-dimethyl-indolin-1-yl)-N-tetrahydropyran-4-yl-thiazolo[5,4-d]pyrimidine-2-carboxamide] | 0.002 | 0.00316 | 0.00251
8 | C[C@@H]1Cc2ccccc2N1c1ncnc2sc(C(=O)NC3CCOCC3)nc12 [Example 130, 7-[(2R)-2-methylindolin-1-yl]-N-tetrahydropyran-4-yl-thiazolo[5,4-d]pyrimidine-2-carboxamide] | 0.0501 | 0.0398 | 0.0501
9 | CNCC1CN(c2ncnc3sc(C(=O)NC4CCOCC4)nc23)c2ccccc21 (stereo not drawn) [Example 120, 7-[3-(Methylaminomethyl)indolin-1-yl]-N-tetrahydropyran-4-yl-thiazolo[5,4-d]pyrimidine-2-carboxamide] | 0.0501 | 0.0316 | 0.126
10 | CC(C)Oc1cc(F)ccc1Nc1ncnc2sc(C(=O)NC3CC4CCC(C3)N4C(=O)OC(C)(C)C)nc12 (stereo not drawn) [Example 6, tert-butyl 3-[[7-(4-fluoro-2-isopropoxy-anilino)thiazolo[5,4-d]pyrimidine-2-carbonyl]amino]-8-azabicyclo[3.2.1]octane-8-carboxylate] | 0.794 | 0.398 | 0.251
11 | O=C(NC1CCOCC1)c1nc2c(N3CC(CO)c4ccccc43)ncnc2s1 (stereo not drawn) [Example 109, 7-[3-(hydroxymethyl)indolin-1-yl]-N-tetrahydropyran-4-yl-thiazolo[5,4-d]pyrimidine-2-carboxamide] | 0.0126 | 0.00794 | 0.0126
12 | CNCCC1CN(c2ncnc3sc(C(=O)NC4CCOCC4)nc23)c2ccc(F)cc21 (stereo not drawn) [Example 147, 7-[5-fluoro-3-[2-(methyl-amino)ethyl]indolin-1-yl]-N-tetrahydropyran-4-yl-thiazolo[5,4-d]pyrimidine-2-carboxamide] | 0.00794 | 0.01 | 0.0158
13 | O=C(NC1CCOCC1)c1nc2c(N3CCc4cccc(F)c43)ncnc2s1 [Example 90, 7-(7-Fluoroindolin-1-yl)-N-tetrahydropyran-4-yl-thiazolo[5,4-d]pyrimidine-2-carboxamide] | 0.126 | 0.126 | 0.158
14 | CNCCCNC(=O)c1nc2c(Nc3ccc(F)cc3OC(C)C)ncnc2s1 [Example 29, 7-{[4-Fluoro-2-(propan-2-yloxy)phenyl]amino}-N-[3-(methylamino)propyl][1,3]thiazolo[5,4-d]pyrimidine-2-carboxamide] | 0.0631 | 0.0501 | 0.0398
15 | CC(C)Oc1cc(F)ccc1Nc1ncnc2sc(C(=O)NCC3CNCCO3)nc12 (stereo not drawn) [Example 4, 7-(4-fluoro-2-isopropoxy-anilino)-N-(morpholin-2-ylmethyl)thiazolo[5,4-d]pyrimidine-2-carboxamide] | 0.0501 | 0.0398 | 0.1
16 | CC1CN(c2ncnc3sc(C(=O)NCC4CCNCC4)nc23)c2ccccc21 (stereo not drawn) [Example 146] | 0.00631 | 0.00794 | 0.00501
17 | CN1CCC(NC(=O)c2nc3c(N4CCc5cc(F)ccc54)ncnc3s2)CC1 [Example 67, 7-(5-fluoroindolin-1-yl)-N-(1-methyl-4-piperidyl)thiazolo[5,4-d]pyrimidine-2-carboxamide] | 0.00398 | 0.00316 | 0.00398
18 | CN(C)CCCNC(=O)c1nc2c(Nc3ccc(F)cc3O[C@@H]3CCCC[C@H]3O)ncnc2s1 [Example 15, N-[3-(dimethylamino)propyl]-7-[4-fluoro-2-[(1R,2R)-2-hydroxycyclohexoxy]anilino]thiazolo[5,4-d]pyrimidine-2-carboxamide] | 0.794 | 0.631 | 0.251
19 | O=C(NC1CCOC1)c1nc2c(N3CCc4cc(F)ccc43)ncnc2s1 (stereo not drawn) [Example 77, 7-(5-fluoroindolin-1-yl)-N-tetrahydrofuran-3-yl-thiazolo[5,4-d]pyrimidine-2-carboxamide] | 0.002 | 0.002 | 0.00398
20 | O=C(NC1CCOCC1)c1nc2c(N3CCc4cc(Cl)cc(F)c43)ncnc2s1 [Example 91, 7-(5-Chloro-7-fluoro-indolin-1-yl)-N-tetrahydropyran-4-yl-thiazolo[5,4-d]pyrimidine-2-carboxamide] | 0.0631 | 0.0501 | 0.1
21 | CN1CCN(c2nc3c(N4CCc5cc(F)ccc54)ncnc3s2)CC1 [Example 88, 7-(5-fluoroindolin-1-yl)-2-(4-methylpiperazin-1-yl)thiazolo[5,4-d]pyrimidine] | 0.0794 | 0.0501 | 0.251

Other lines, results leading:

Row | IC50 [1] [µM] | IC50 [2] [µM] | IC50 [3] [µM] | SMILES
22 | 0.0501 | 0.0501 | 0.0631 | CC(C)Oc1cc(F)ccc1Nc1ncnc2sc(C(=O)NCCCO)nc12 [Example 8, 7-(4-fluoro-2-isopropoxy-anilino)-N-(3-hydroxypropyl)thiazolo[5,4-d]pyrimidine-2-carboxamide]
23 | 0.2 | 0.158 | 0.0794 | CC(C)Oc1cc(F)ccc1Nc1ncnc2sc(C(=O)NC3CCS(=O)(=O)CC3)nc12 [Example 34, N-(1,1-dioxidotetrahydro-2H-thiopyran-4-yl)-7-{[4-fluoro-2-(propan-2-yloxy)phenyl]amino}[1,3]thiazolo[5,4-d]pyrimidine-2-carboxamide]
24 | 0.0158 | 0.0158 | 0.0794 | C[C@@H]1Cc2ccccc2N1c1ncnc2sc(C(=O)NC3CCNCC3)nc12 [Example 129, 7-[(2R)-2-methylindolin-1-yl]-N-(4-piperidyl) thiazolo[5,4-d]pyrimidine-2-carboxamide]
25 | 0.00631 | 0.00316 | 0.00794 | O=C(NC1COC1)c1nc2c(N3CCc4cc(F)ccc43)ncnc2s1 [Example 76, 7-(5-fluoroindolin-1-yl)-N-(oxetan-3-yl)thiazolo[5,4-d]pyrimidine-2-carboxamide]
26 | 0.00501 | 0.00316 | 0.00501 | CNCCCNC(=O)c1nc2c(N3CC(C)(C)c4ccccc43)ncnc2s1 [Example 159]
27 | 0.01 | 0.01 | 0.01 | O=C(NC1CCOCC1)c1nc2c(N3CC(CCO)c4ccccc43)ncnc2s1 (stereo not drawn) [Example 110, 7-[3-(2-hydroxyethyl)indolin-1-yl]-N-tetrahydropyran-4-yl-thiazolo[5,4-d]pyrimidine-2-carboxamide]
28 | 0.0251 | 0.02 | 0.0158 | O=C(NC1COC1)c1nc2c(N3CCc4ccccc43)ncnc2s1 [Example 100, 7-indolin-1-yl-N-(oxetan-3-yl)thiazolo[5,4-d]pyrimidine-2-carboxamide]
29 | 0.0251 | 0.02 | 0.0316 | CC1Cc2ccccc2N1c1ncnc2sc(C(=O)NCCCN(C)C)nc12 (stereo not drawn) [Example 124]
30 | 0.01 | 0.0126 | 0.0316 | CC(C)[C@@H](CO)NC(=O)c1nc2c(N3CCc4ccccc43)ncnc2s1 [Example 101, N-[(1S)-1-(hydroxymethyl)-2-methyl-propyl]-7-indolin-1-yl-thiazolo[5,4-d]pyrimidine-2-carboxamide]
31 | 0.398 | 0.316 | 0.2 | O=C(NCC1CCNCC1)c1nc2c(N3c4ccccc4C[C@@H]3CO)ncnc2s1 [Example 138]
32 | 0.158 | 0.0794 | 0.398 | CC(C)Oc1cc(F)ccc1Nc1ncnc2sc(C(=O)NCCC(=O)O)nc12 [Example 14, 3-[[7-(4-fluoro-2-isopropoxy-anilino)thiazolo[5,4-d]pyrimidine-2-carbonyl]amino]propanoic acid]

Source: patent US10669284B2, “Fused thiazolopyrimidine derivatives as MNKS inhibitors” (LIFEARC, priority 2015, dated 2020)
